According to ChEMBL document CHEMBL3045223, “Synthesis, nematicidal and antimicrobial properties of Bis-[4-methoxy-3-[3-(4-fluorophenyl)-6-(4-methylphenyl)-2(aryl)-tetrahydro-2H-pyrazolo[3,4-d]thiazol-5-yl]phenyl]methanes” (2009):
Converted amounts (≈) assume the structure as drawn.

Experiments:
Assay type in all cases: functional
[1] = test system: Chromobacterium violaceum; experiment: Antibacterial activity against Chromobacterium violaceum MTCC 2656 assessed as inhibition zones at 100 ug/disk at 37 degC for 24 hr; conditions: MTCC 2656, 24 h, read-out: IZ
[2] = test system: Staphylococcus aureus; experiment: Antibacterial activity against Staphylococcus aureus MTCC 96 assessed as inhibition zones at 100 ug/disc at 37 degC for 24 hr; conditions: MTCC 96, 24 h, read-out: IZ
[3] = test system: Bacillus subtilis; experiment: Antibacterial activity against Bacillus subtilis MTCC 441 assessed as inhibition zones at 100 ug/disk at 37 degC for 24 hr; conditions: MTCC 441, 24 h, read-out: IZ
[4] = test system: Klebsiella aerogenes; experiment: Antibacterial activity against Enterobacter aerogenes MTCC 39 assessed as growth arrest at 37 degC for 24 hr; conditions: MTCC 39, 24 h
[5] = test system: Staphylococcus aureus; experiment: Antibacterial activity against Staphylococcus aureus MTCC 96 assessed as growth arrest at 37 degC for 24 hr; conditions: MTCC 96, 24 h
[6] = test system: Pseudomonas aeruginosa; experiment: Antibacterial activity against Pseudomonas aeruginosa MTCC 741 assessed as growth arrest at 37 degC for 24 hr; conditions: MTCC 741, 24 h
[7] = test system: Lysinibacillus sphaericus; experiment: Antibacterial activity against Lysinibacillus sphaericus MTCC 11 assessed as growth arrest at 37 degC for 24 hr; conditions: MTCC 11, 24 h
[8] = test system: Pseudomonas aeruginosa; experiment: Antibacterial activity against Pseudomonas aeruginosa MTCC 741 assessed as inhibition zones at 100 ug/disk at 37 degC for 24 hr; conditions: MTCC 741, 24 h, read-out: IZ
[9] = test system: Bacillus subtilis; experiment: Antibacterial activity against Bacillus subtilis MTCC 441 assessed as growth arrest at 37 degC for 24 hr; conditions: MTCC 441, 24 h
[10] = test system: Chromobacterium violaceum; experiment: Antibacterial activity against Chromobacterium violaceum MTCC 2656 assessed as growth arrest at 37 degC for 24 hr; conditions: MTCC 2656, 24 h
[11] = test system: Klebsiella aerogenes; experiment: Antibacterial activity against Enterobacter aerogenes MTCC 39 assessed as inhibition zones at 100 ug/disk at 37 degC for 24 hr; conditions: MTCC 39, 24 h, read-out: IZ
[12] = test system: Lysinibacillus sphaericus; experiment: Antibacterial activity against Lysinibacillus sphaericus MTCC 11 assessed as inhibition zones at 100 ug/disk at 37 degC for 24 hr; conditions: MTCC 11, 24 h, read-out: IZ
[13] = test system: Aspergillus fumigatus; experiment: Antifungal activity against Aspergillus fumigatus HIC 6094 assessed as growth inhibition at 37 degC for 48 hr; conditions: HIC 6094, 48 h
[14] = test system: Aspergillus fumigatus; experiment: Antifungal activity against Aspergillus fumigatus HIC 6094 assessed as growth inhibition at 100 ug/disc at 37 degC for 48 hr; conditions: HIC 6094, 48 h, read-out: IZ
[15] = test system: Trichophyton rubrum; experiment: Antifungal activity against Trichophyton rubrum IFO 9185 assessed as growth inhibition at 37 degC for 48 hr; conditions: IFO 9185, 48 h
[16] = test system: Trichophyton rubrum; experiment: Antifungal activity against Trichophyton rubrum IFO 9185 assessed as growth inhibition at 100 ug/disk at 37 degC for 48 hr; conditions: IFO 9185, 48 h, read-out: IZ
[17] = test system: Candida albicans; experiment: Antifungal activity against Candida albicans ATCC 10231 assessed as growth inhibition at 37 degC for 48 hr; conditions: ATCC 10231, 48 h
[18] = test system: Trichophyton mentagrophytes; experiment: Antifungal activity against Trichophyton mentagrophytes IFO 40996 assessed as growth inhibition at 37 degC for 48 hr; conditions: IFO 40996, 48 h
[19] = test system: Trichophyton mentagrophytes; experiment: Antifungal activity against Trichophyton mentagrophytes IFO 40996 assessed as growth inhibition at 100 ug/disc at 37 degC for 48 hr; conditions: IFO 40996, 48 h, read-out: IZ
[20] = test system: Candida albicans; experiment: Antifungal activity against Candida albicans ATCC 10231 assessed as growth inhibition at 100 ug/disk at 37 degC for 48 hr; conditions: ATCC 10231, 48 h, read-out: IZ

Structure (SMILES) | zone of inhibition at 100 µg/disc [1] [mm] | zone of inhibition at 100 µg/disc [2] [mm] | zone of inhibition at 100 µg/disc [3] [mm] | MBC [4] [µg/mL] | MIC [4] [µg/mL] | MBC [5] [µg/mL] | MIC [5] [µg/mL] | MBC [6] [µg/mL] | MIC [6] [µg/mL] | MBC [7] [µg/mL] | MIC [7] [µg/mL] | zone of inhibition at 100 µg/disc [8] [mm] | MBC [9] [µg/mL] | MIC [9] [µg/mL] | MBC [10] [µg/mL] | MIC [10] [µg/mL] | zone of inhibition at 100 µg/disc [11] [mm] | zone of inhibition at 100 µg/disc [12] [mm] | further results
CC1(C)S[C@@H]2[C@H](NC(=O)Cc3ccccc3)C(=O)N2[C@H]1C(=O)O [PENICILLIN G] | 25 | 40 | 25 | 12.5 (≈ 37.4 µM) | 6.25 (≈ 18.7 µM) | 6.25 (≈ 18.7 µM) | 1.56 (≈ 4.67 µM) | 12.5 (≈ 37.4 µM) | 6.25 (≈ 18.7 µM) | 25 (≈ 74.8 µM) | 3.12 (≈ 9.33 µM) | 25 | 6.25 (≈ 18.7 µM) | 1.56 (≈ 4.67 µM) | 12.5 (≈ 37.4 µM) | 12.5 (≈ 37.4 µM) | 30 | 28 | –
C[C@@H]1[C@H](O)[C@@H](C)/C=C/C=C/C=C/C=C/C=C/C=C/C=C/[C@H](O[C@@H]2O[C@H](C)[C@@H](O)[C@H](N)[C@@H]2O)C[C@@H]2O[C@](O)(C[C@@H](O)C[C@@H](O)[C@H](O)CC[C@@H](O)C[C@@H](O)CC(=O)O[C@H]1C)C[C@H](O)[C@H]2C(=O)O [AMPHOTERICIN B] | – | – | – | – | – | – | – | – | – | – | – | – | – | – | – | – | – | – | MBC [13]: 6.25 µg/mL (≈ 6.76 µM); MIC [13]: 3.12 µg/mL (≈ 3.38 µM); zone of inhibition at 100 µg/disc [14]: 20 mm; MBC [15]: 12.5 µg/mL (≈ 13.5 µM); MIC [15]: 3.12 µg/mL (≈ 3.38 µM); zone of inhibition at 100 µg/disc [16]: 20 mm; MBC [17]: 12.5 µg/mL (≈ 13.5 µM); MIC [17]: 6.25 µg/mL (≈ 6.76 µM); MBC [18]: 12.5 µg/mL (≈ 13.5 µM); MIC [18]: 3.12 µg/mL (≈ 3.38 µM); zone of inhibition at 100 µg/disc [19]: 18 mm; zone of inhibition at 100 µg/disc [20]: 25 mm
CN[C@@H]1[C@H](O[C@H]2[C@H](O[C@H]3[C@H](O)[C@@H](O)[C@H](N=C(N)N)[C@@H](O)[C@@H]3N=C(N)N)O[C@@H](C)[C@]2(O)C=O)O[C@@H](CO)[C@H](O)[C@H]1O [STREPTOMYCIN] | 20 | 41 | 30 | 6.25 (≈ 10.7 µM) | 1.56 (≈ 2.68 µM) | 12.5 (≈ 21.5 µM) | 6.25 (≈ 10.7 µM) | 6.25 (≈ 10.7 µM) | 1.56 (≈ 2.68 µM) | 25 (≈ 43 µM) | 6.25 (≈ 10.7 µM) | 15 | 12.5 (≈ 21.5 µM) | 6.25 (≈ 10.7 µM) | 6.25 (≈ 10.7 µM) | 3.12 (≈ 5.36 µM) | 25 | 20 | –
